Data set [1] concerns E. coli induced oxidative burst in human whole blood. Kind of data set: E. coli induced oxidative burst in human whole blood (Phagoburst kit, Example 26). In kind it is cell-based. Particulars: read-out: IC50 for the inhibition of the E. coli induced oxidative burst in human whole blood. How it is done: The whole blood assay is carried out according to the instructions from the Phagoburst-Kit (Orpegen Pharma). 50 μg/ml of Refludan is used to inhibit blood clotting (Mollnes et al. 2002 Blood 100: 1869). Freshly drawn, anticoagulated blood is cooled over ice and 100 μl thereof are added to 10 μl of the compound solution containing at most 1.3% of DMSO. The mixture is incubated for 10 minutes at 37° C. After this the samples are put on ice again and 20 μl of opsonisated E. coli suspension (10^9 cells/ml) is added followed by 10 minutes of incubation at 37° C. 20 μl of the substrate are added to the cells followed by another 10 minutes of incubation at 37° C. After this 2 ml of lysis buffer are added to the cells, which are then kept at room temperature for 20 minutes. The cellular components are separated by centrifugation at 250×g for 5 minutes. The supernatant is discarded and 3 ml of washing solution are added to the pellet. The cells are centrifuged again and the resulting pellet is taken up in 200 μl DNA staining solution. The neutrophiles are analysed by means of a FACS device (FACSCalibur, Becton-Dickinson) according to the parameters given in the manual. […] It can be seen that, due to the determined activity, the compounds of this invention are suited to be used as therapeutics in human.

In another data set the target is T1, C5a receptor (Homo sapiens, UniProt P21730).
T1 sequence (P21730 1-350): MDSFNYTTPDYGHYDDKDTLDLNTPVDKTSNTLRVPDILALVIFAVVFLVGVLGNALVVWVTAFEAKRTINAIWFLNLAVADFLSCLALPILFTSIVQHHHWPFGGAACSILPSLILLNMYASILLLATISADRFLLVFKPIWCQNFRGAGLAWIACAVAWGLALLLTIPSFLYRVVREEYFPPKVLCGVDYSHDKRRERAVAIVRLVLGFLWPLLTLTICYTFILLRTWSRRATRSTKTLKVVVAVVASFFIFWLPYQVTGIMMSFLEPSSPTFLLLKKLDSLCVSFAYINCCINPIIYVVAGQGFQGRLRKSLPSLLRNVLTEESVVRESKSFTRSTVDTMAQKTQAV
Kind of data set: Binding of 125I-C5a to human C5aR transfected HEK293 cells (Example 27). More on the design: expressed in transfected cells; host or cells: HEK293 cells. Particulars: 125I-C5a tracer, read-out: IC50 for the inhibition of the binding of C5a to the C5a receptor. How it is done: The binding studies are done as determination of IC50 values with radioactively labeled C5a (125I) as tracer. For this purpose, human C5aR transfected HEK293 cells are adjusted to a concentration of […]. 30 μl of the cell suspension are added into a microtiter plate. Then the C5a receptor antagonists are added followed by 10 minutes pre-incubation at room temperature. After that, 10 μl of labelled C5a are added (15.000 cpm). The mixture is now incubated over ice for 30 minutes. After this the cells are isolated by means of a filter plate (Millipore MHVB 4510) and washed two times with 100 μl HAG-CM each (see example 32). The cells are dried and, after transferring the filter plate onto the adapter plate (Canberra 6005178), 50 μl/well Microscint 0 are added and the plate is measured in the scintillation counter.

Data set [2] is described as follows: AB permeability in TC-7 cell based assay (Example 34). In kind it is in vitro ADME. Particulars: human, Caco-2, TC-7 cells, apical pH 6.5 / basolateral pH 7.4, 120 min. How it is done: Compounds to be tested are prepared at a concentration of 50 μM in HBSS-MES (5 mM, pH 6.5) (from a 10 mM stock solution in 100% DMSO). ^14C-mannitol (about 4 μM) is added and the solution is mixed and centrifuged. The supernatant is added to the apical side of a TC-7 cell culture (passage 15, in 24 well transwell plate) to obtain a DMSO concentration of 1%. At the basolateral side HBSS-HEPES (5 mM, pH 7.4) is placed. Subsequently, the cells are incubated for 120 minutes at 37° C. The integrity of the TC-7 cell layer is checked by means of the added mannitol (Papp <2.5 10^−6 cm/s). The Permeabilität Papp [cm/s] is equal to (VR×CR120)/(Δt×A×(CD,mid−CR,mid)). VR is the volume of the receiver chamber, CR120 the concentration the test compound in the receiver chamber after 120 minutes, Δt the incubation time, A the area of the TC-7 cell layer, CD,mid the midpoint concentration of the test substance in the donor chamber and CR,mid the concentration of the test compound in the receiver chamber.

SMILES strings stand for the structures.

`CCc1c(N)cc(Cl)c(CC)c1NC(=O)N(Cc1ccc(Cl)cc1)c1ccc(CC(F)(F)F)cc1` [compound 103, 3-(3-amino-5-chloro-2,6-diethyl-phenyl)-1-(4-chloro-benzyl)-1-[4-(2,2,2-trifluoro-ethyl)-phenyl]-urea]: the IC50 stood at 0.8 µM in data set [1] and 0.0586 µM on C5a receptor.
As to `CCc1ccc(N(Cc2ccc(C)nc2)C(=O)Nc2c(CC)c(N)cc(Cl)c2CC)cc1` [compound 106, 3-(3-amino-5-chloro-2,6-diethyl-phenyl)-1-(4-ethyl-phenyl)-1-(6-methyl-pyridin-3-ylmethyl)-urea], the IC50 in data set [1] is 1.6 µM. The compound further yielded a Papp A→B at 120 min, 50 μM in data set [2] of 22.3 ×10⁻⁶ cm/s.
Take `CCc1ccc(N(C(=O)Nc2c(CC)c(N)cc(Cl)c2CC)C(C)c2ccc3c(c2)ncn3C)cc1` (stereo not drawn) [compound 122, 3-(3-amino-5-chloro-2,6-diethyl-phenyl)-1-(4-ethyl-phenyl)-1-[1-(1-methyl-1H-benzoimidazol-5-yl)-ethyl]-urea]: the IC50 in data set [1] amounted to 3.5 µM. In addition, in data set [2], the Papp A→B at 120 min, 50 μM came to 3.5 ×10⁻⁶ cm/s.

The values are drawn from patent publication US8071810B2, “C5a receptor antagonists” (Jerini AG, priority 2005, dated 2011).
